Results: patent US12616698B2, “Methods for reducing liver fat and for treating fatty liver disorders” (Corcept Therapeutics Incorporated, priority 2021, dated 2026)
Marks after values point to notes of the source that are not given here.

What was measured:
[1] = tested on: patients presumed to have NASH; assay: Phase 2a study in patients with presumed NASH: liver fat by MRI-PDFF; type: in vivo, human
From the text: A Phase 2a, randomized, double-blind, placebo-controlled study (ClinicalTrials.gov Identifier: NCT03823703) was begun to assess the efficacy of two dose levels of miricorilant versus placebo in reducing liver fat in patients who were presumed to have non-alcoholic steatohepatitis (NASH), that presumption based on blood tests and noninvasive measures. Written informed consent was obtained before initiating any study-mandated procedures. The full study was planned to enroll approximately 120 patients, randomized 1:1:1 to receive daily 900 mg miricorilant:600 mg miricorilant: matching placebo.
Patients enrolled in the study were required to have consistent liver enzyme (ALT and AST) baseline measurements (established by two samples obtained at least 4 weeks and no more than six months apart), and a diagnosis of presumed NASH with fibrosis defined as meeting all of the following criteria: • a. Either: i) a historical liver biopsy within 1 year of Screening showing NASH, NAFLD Activity Score (NAS) greater than or equal to 4, and F1 to F3 fibrosis, or ii) an AST level greater than 17 U/L for women or AST level greater than 20 U/L for men AND a FibroScan liver stiffness measurement of greater than or equal to 8.5 kPa and a Controlled Attenuation Parameter (CAP) of greater than or equal to 300 dB/m in the 3 months prior to Screening or at Screening; • b. A MRI-PDFF with greater than or equal to 10% steatosis; and • c. The presence of two or more components of metabolic syndrome: type 2 diabetes treatment or fasting blood glucose greater than or equal to 126 mg/dL, BMI greater than or equal to 30 kg/m^2, hypertension treatment or blood pressure greater than or equal to 130/85, history of dyslipidemia, or waist circumference greater than or equal to 102 cm (40 in) in men and greater than or equal to 88 cm (35 in) in women.
(§1) Measures of the effectiveness of miricorilant versus placebo in reducing liver fat were assessed by magnetic resonance imaging (MRI). The change from baseline MRI measurements relative to MRI measurements taken following a course of daily miricorilant or placebo administration were assessed by magnetic resonance imaging-proton density fat fraction (MRI-PDFF). Additionally, effects of miricorilant may be assessed by measuring one or more of the following, either by comparing change from baseline after one or more days of miricorilant administration, or by comparing measurements in patients administered miricorilant versus patients administered placebo: change in liver fat assessed by MRI-PDFF; change in AST, ALT, and gamma-glutamyl transferase (GGT); change in propeptide of type III collagen (pro-C3); change in enhanced liver fibrosis (ELF) score and its components (hyaluronic acid, tissue inhibitor of metalloproteinases-1 [TIMP-1], type III procollagen [PIIINP]); change in ACTH, serum cortisol, and serum aldosterone (pharmacodynamic assessments); change in Homeostatic Model Assessment of Insulin Resistance (HOMA-IR); change in absolute body weight; and other measurements. […] For patients with diabetes, change in HbA1c and change in fasting blood glucose may be measured to assess the effects of miricorilant. Change in blood pressure may be measured in patients with high blood pressure to assess the effects of miricorilant. Pharmacokinetic (PK) parameters were estimated from steady state plasma concentrations of miricorilant.
Patients were randomized in a 1:1:1 ratio to 600 mg miricorilant, 900 mg miricorilant, or placebo. Study drug was administered once daily, orally with 8 oz (240 mL) of water, along with food. Patients were instructed to take a total of 6 tablets at approximately the same time each day. Those in the 600 miricorilant group took 4 miricorilant tablets and 2 placebo tablets. Those in the 900 miricorilant group took 6 miricorilant tablets. Those in the placebo group took 6 placebo tablets. […]

[2] = Phase 2a study: body weight and plasma lipids; type: in vivo, human; conditions: patients who responded to miricorilant treatment (FIG. 4)
Protocol: as §1, with “Change in blood pressure may be measured in patients with high blood pressure to assess the effects of miricorilant. Pharmacokinetic (PK) parameters were estimated from steady state plasma concentrations of miricorilant.” left out
Liver enzyme levels were measured in the patients.

[3] = one patient, 600 mg per day, MRI-PDFF 26 days after cessation of study drug
[4] = patient 208-4020, 900 mg daily, 30 days on study drug, MRI 19 days after dose ended
[5] = patient 211-4002, 900 mg daily, 31 days on study drug, MRI 64 days after dose ended
[6] = patient 214-4007, 900 mg daily, 44 days on study drug, MRI 16 days after dose ended
[7] = patient 232-4016, 600 mg daily, 39 days on study drug, MRI 26 days after dose ended
[8] = patient 233-4018, 600 mg daily, 34 days on study drug, MRI 21 days after dose ended

O=c1[nH]c(=O)c(Cc2cccc(C(F)(F)F)c2)c([C@H]2CC[C@H](c3ccccc3)CC2)[nH]1 [miricorilant, (E)-6-(4-Phenylcyclohexyl)-5-(3-trifluoromethylbenzyl)-1H-pyrimidine-2,4-dione]
Liver fat levels ([1]; 30 or 34 days of treatment, two of five patients administered miricorilant): normalized
Liver fat reductions ([1]; found in four patients (Table 3)): greater than 30%
Resolution of fatty liver (MRI-PDFF <5%) ([1]; one patient (233-4018, 600 mg) of the four with liver fat decreases): *complete resolution of fatty liver (MRI-PDFF <5%)
MRI PDFF value increase as compared to baseline [1, 3]: 5
Relative increase in liver fat from baseline [1, 3]: 27.9%
% Change in liver fat [1, 4]: −65.3%
Change in MRI PDFF [1, 4]: −11.5
MRI PDFF value ([1]; patient 208-4020, 900 mg daily, 30 days on study drug, MRI 19 days after dose ended, screening value 17.6): 6.1
Relative change from baseline in % liver fat ([1]; patient 208-4020, 900 mg, 30 days on treatment): −65.3%
Liver fat Follow-up ([1]; patient 208-4020, 900 mg, 30 days on treatment, baseline 17.6): 6.1%
% Change in liver fat [1, 5]: −38.5%
Change in MRI PDFF [1, 5]: −10.7
MRI PDFF value ([1]; patient 211-4002, 900 mg daily, 31 days on study drug, MRI 64 days after dose ended, screening value 27.8): 17.1
Relative change from baseline in % liver fat ([1]; patient 211-4002, 900 mg, 31 days on treatment): −38.5%
Liver fat Follow-up ([1]; patient 211-4002, 900 mg, 31 days on treatment, baseline 27.8): 17.1%
% Change in liver fat [1, 6]: −47.0%
Change in MRI PDFF [1, 6]: −13.3
MRI PDFF value ([1]; patient 214-4007, 900 mg daily, 44 days on study drug, MRI 16 days after dose ended, screening value 28.3): 15.0
Relative change from baseline in % liver fat ([1]; patient 214-4007, 900 mg, 44 days on treatment): −47.0%
Liver fat Follow-up ([1]; patient 214-4007, 900 mg, 44 days on treatment, baseline 28.3): 15.0%
% Change in liver fat [1, 7]: +27.9%
Change in MRI PDFF [1, 7]: 5.0
MRI PDFF value ([1]; patient 232-4016, 600 mg daily, 39 days on study drug, MRI 26 days after dose ended, screening value 17.9): 22.9
% Change in liver fat [1, 8]: −73.8%
Change in MRI PDFF [1, 8]: −9.3
MRI PDFF value ([1]; patient 233-4018, 600 mg daily, 34 days on study drug, MRI 21 days after dose ended, screening value 12.6): 3.3
Relative change from baseline in % liver fat ([1]; patient 233-4018, 600 mg, 34 days on treatment): −73.8%
Liver fat Follow-up ([1]; patient 233-4018, 600 mg, 34 days on treatment, baseline 12.6): 3.3* %
Mean liver fat content after treatment (FIG. 3C) ([1]; patient with the greatest reduction, 600 mg daily, baseline 12.6%): 3.3%
Changes in body weight [2]: No significant changes
